Data on 33 molecules can be found in patent US11384055B2 (BIOMARIN PHARMACEUTICAL INC., priority 2017, dated 2022).

Bounds are passed on as bounds.

The target in the first test is T1, Human GO (Homo sapiens, UniProt Q9UJM8).
T1 construct: purchased Novus Biologicals NBP1-72412
T1 sequence (Q9UJM8 1-370): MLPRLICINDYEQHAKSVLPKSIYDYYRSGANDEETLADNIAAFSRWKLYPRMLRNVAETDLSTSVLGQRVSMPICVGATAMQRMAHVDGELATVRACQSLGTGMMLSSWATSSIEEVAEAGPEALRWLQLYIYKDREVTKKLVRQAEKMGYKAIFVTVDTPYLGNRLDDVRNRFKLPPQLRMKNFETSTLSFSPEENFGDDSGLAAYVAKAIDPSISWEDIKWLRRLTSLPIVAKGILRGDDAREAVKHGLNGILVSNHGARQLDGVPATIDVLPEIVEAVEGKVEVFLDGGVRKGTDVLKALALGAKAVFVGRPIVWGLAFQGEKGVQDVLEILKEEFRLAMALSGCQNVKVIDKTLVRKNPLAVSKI
The test can be described thus: GO enzymatic assay (coupled fluorescence/HRP assay, glycolate substrate). It counts as biochemical. To be noted: Table 1; read-out: Range (range of IC50 values calculated from the enzymatic assays). As for the experimental part: Assay 1: GO Enzymatic Assay
GO was incubated with its substrate, glycolate, in 50 mM potassium phosphate buffer, pH 7. […] The enzyme was optimized and the kinetics was determined.
Compound inhibition was determined by adding various concentrations of inhibitors in the GO enzyme assay. The IC50 value for each measured compound was generated from sigmoidal dose-response (variable slope) curves with GraphPad Prism software (GraphPad Software, Inc., San Diego, Calif.) using the percent inhibition of GO activity relative to DMSO control.
For the molecule `O=C(O)c1[nH]nnc1Sc1nc(-c2ccc(Cl)c(Cl)c2)cs1` [Compound 2, 4-((4-(3,4-dichlorophenyl)thiazol-2-yl)thio)-1H-1,2,3-triazole-5-carboxylic acid], the IC50 (in general, the concentration needed to halve the response being measured) was below 100 nM.

Regarding `O=C(O)c1[nH]nnc1Sc1ncc(-c2ccc(Cl)c(Cl)c2)s1` [Compound 3, 4-((5-(3,4-dichlorophenyl)thiazol-2-yl)thio)-1H-1,2,3-triazole-5-carboxylic acid], the half-inhibitory concentration (IC50) was below 100 nM.

Consider `O=C(O)c1[nH]nnc1Sc1ccc(-c2ccc(Cl)cc2)cc1` [Compound 5, 4-((4′-chloro-[1,1′-biphenyl]-4-yl)thio)-1H-1,2,3-triazole-5-carboxylic acid], for which the IC50 was below 100 nM. Turning to `CN1CCN(c2cccc(Sc3[nH]nnc3C(=O)O)c2)CC1` [Compound 6, 5-((3-(4-methylpiperazin-1-yl)phenyl)thio)-1H-1,2,3-triazole-4-carboxylic acid 2,2,2-trifluoroacetate], the IC50 is above 10000 nM. As to `O=C(O)c1[nH]nnc1Sc1ccc(N2CCCCC2)cc1` [Compound 7, 4-((4-(piperidin-1-yl)phenyl)thio)-1H-1,2,3-triazole-5-carboxylic acid 2,2,2-trifluoroacetate], the IC50 was 100 to 1000 nM.

On to `O=C(O)c1[nH]nnc1Sc1csc(-c2ccc(Cl)c(Cl)c2)n1` [Compound 8, 4-((2-(3,4-dichlorophenyl)thiazol-4-yl)thio)-1H-1,2,3-triazole-5-carboxylic acid], for which the IC50 was below 100 nM. For `O=C(OC1CCC1)c1[nH]nnc1Sc1nc(-c2ccc(Cl)c(Cl)c2)cs1` [Compound 9, cyclobutyl 4-((4-(3,4-dichlorophenyl)thiazol-2-yl)thio)-1H-1,2,3-triazole-5-carboxylate], the concentration for half-maximal inhibition (IC50) was above 10000 nM.

As to `CN1CCN(c2ccc(Sc3nn[nH]c3C(=O)O)cc2)CC1` [Compound 10, 4-((4-(4-methylpiperazin-1-yl)phenyl)thio)-1H-1,2,3-triazole-5-carboxylic acid], the IC50 was 1000 to 10000 nM. Consider `CC(C)OC(=O)c1[nH]nnc1Sc1nc(-c2ccc(Cl)c(Cl)c2)cs1` [Compound 11, isopropyl 4-((4-(3,4-dichlorophenyl)thiazol-2-yl)thio)-1H-1,2,3-triazole-5-carboxylate], for which the IC50 was above 10000 nM. With `O=C(O)c1[nH]nnc1Sc1ccc(-c2ccc(Br)cc2)cn1` [Compound 12, 4-((5-(4-bromophenyl)pyridin-2-yl)thio)-1H-1,2,3-triazole-5-carboxylic acid 2,2,2-trifluoroacetate], the IC50 is 100 to 1000 nM. Still for that read-out and setting: for `O=C(O)c1[nH]nnc1Sc1nnc(-c2ccc(Cl)c(Cl)c2)[nH]1` [Compound 13, 4-((5-(3,4-dichlorophenyl)-4H-1,2,4-triazol-3-yl)thio)-1H-1,2,3-triazole-5-carboxylic acid] the value was 100 to 1000 nM; for `COc1ccc(-c2ccc(Sc3nn[nH]c3C(=O)O)cc2)cc1` [Compound 14, 4-((4′-methoxy-[1,1′-biphenyl]-4-yl)thio)-1H-1,2,3-triazole-5-carboxylic acid], below 100 nM; for `COc1ccc(-c2csc(Sc3nn[nH]c3C(=O)O)n2)cc1Cl` [Compound 15, 4-((4-(3-chloro-4-methoxyphenyl)thiazol-2-yl)thio)-1H-1,2,3-triazole-5-carboxylic acid], below 100 nM.

`O=C(O)c1[nH]nnc1Sc1ccc(-c2ccc(OC(F)(F)F)cc2)cc1` [Compound 16, 4-((4′-(trifluoromethoxy)-[1,1′-biphenyl]-4-yl)thio)-1H-1,2,3-triazole-5-carboxylic acid]: the IC50 is below 100 nM. In the case of `COC(=O)c1[nH]nnc1Sc1nc(-c2ccc(Cl)c(Cl)c2)cs1` [Compound 17, methyl 4-((4-(3,4-dichlorophenyl)thiazol-2-yl)thio)-1H-1,2,3-triazole-5-carboxylate], the IC50 is above 10000 nM. For the molecule `O=C(O)c1[nH]nnc1Sc1nc(-c2ccc(OC3CC3)c(Cl)c2)cs1` [Compound 18, 4-((4-(3-chloro-4-cyclopropoxyphenyl)thiazol-2-yl)thio)-1H-1,2,3-triazole-5-carboxylic acid], the IC50 was below 100 nM.

`O=C(OC1CC1)c1[nH]nnc1Sc1nc(-c2ccc(Cl)c(Cl)c2)cs1` [Compound 19, cyclopropyl 4-((4-(3,4-dichlorophenyl)thiazol-2-yl)thio)-1H-1,2,3-triazole-5-carboxylate]: the concentration for half-maximal inhibition (IC50) is above 10000 nM. On to `O=C(O)c1[nH]nnc1Sc1cccc(-c2ccc(Cl)c(Cl)c2)n1` [Compound 20, 4-((6-(3,4-dichlorophenyl)pyridin-2-yl)thio)-1H-1,2,3-triazole-5-carboxylic acid], for which the IC50 was below 100 nM.

On to `O=C(O)c1[nH]nnc1Sc1ccc(-c2ccc(Cl)c(Cl)c2)cc1` [Compound 21, 4-((3′,4′-dichloro-[1,1′-biphenyl]-4-yl)thio)-1H-1,2,3-triazole-5-carboxylic acid], for which the IC50 is below 100 nM.

On to `O=C(O)c1[nH]nnc1Sc1ccc(-c2ccc(Cl)cc2Cl)cc1` [Compound 22, 4-((2′,4′-dichloro-[1,1′-biphenyl]-4-yl)thio)-1H-1,2,3-triazole-5-carboxylic acid], for which the IC50 was below 100 nM. For the molecule `COc1cc(-c2nc(Sc3nn[nH]c3C(=O)O)cs2)ccc1Cl` [Compound 23, 4-((2-(4-chloro-3-methoxyphenyl)thiazol-4-yl)thio)-1H-1,2,3-triazole-5-carboxylic acid], the IC50 is below 100 nM. The same measure, in the same setting: to `CC(C)Oc1cc(-c2nc(Sc3nn[nH]c3C(=O)O)cs2)ccc1Cl` [Compound 24, 4-((2-(4-chloro-3-isopropoxyphenyl)thiazol-4-yl)thio)-1H-1,2,3-triazole-5-carboxylic acid] belongs below 100 nM; to `COc1ccc(Cn2nnc(C(=O)O)c2Sc2csc(-c3ccc(OC)c(Cl)c3)n2)cc1` [Compound 25-1, 5-((2-(3-chloro-4-methoxyphenyl)thiazol-4-yl)thio)-1-(4-methoxybenzyl)-1H-1,2,3-triazole-4-carboxylic acid], above 10000 nM. `COc1ccc(-c2nc(Sc3nn[nH]c3C(=O)O)cs2)cc1Cl` [Compound 25-2, 4-((2-(3-chloro-4-methoxyphenyl)thiazol-4-yl)thio)-1H-1,2,3-triazole-5-carboxylic acid]: the IC50 was below 100 nM. As for `O=C(O)c1[nH]nnc1Sc1csc(-c2ccc(Cl)cc2Cl)n1` [Compound 26, 4-((2-(2,4-dichlorophenyl)thiazol-4-yl)thio)-1H-1,2,3-triazole-5-carboxylic acid], the IC50 was below 100 nM. Regarding `CC(C)Oc1ccc(-c2nc(Sc3nn[nH]c3C(=O)O)cs2)cc1Cl` [Compound 27, 4-((2-(3-chloro-4-isopropoxyphenyl)thiazol-4-yl)thio)-1H-1,2,3-triazole-5-carboxylic acid], the IC50 was below 100 nM. Consider `Cn1c(Sc2nn[nH]c2C(=O)O)nnc1-c1ccc(Cl)c(Cl)c1` [Compound 28, 4-((5-(3,4-dichlorophenyl)-4-methyl-4H-1,2,4-triazol-3-yl)thio)-1H-1,2,3-triazole-5-carboxylic acid 2,2,2-trifluoroacetate], for which the IC50 is 1000 to 10000 nM. Turning to `CCOc1ccc2sc(Sc3nn[nH]c3C(=O)O)nc2c1` [Compound 29, 4-((5-ethoxybenzo[d]thiazol-2-yl)thio)-1H-1,2,3-triazole-5-carboxylic acid], the IC50 is 100 to 1000 nM.

The test is the same for the next values; noted with them: Table 4; read-out: Range (range of IC50 values calculated from the enzymatic assays).
`CCCC(O)(CC)Cn1ccc(-c2ccc([C@H]3CC[C@H](Oc4nn[nH]c4C(=O)O)CC3)cc2)n1` (relative stereo) [Example 458, 4-(((trans)-4-(4-(1-(2-ethyl-2-hydroxypentyl)-1H-pyrazol-3-yl)phenyl)cyclohexyl)oxy)-1H-1,2,3-triazole-5-carboxylic acid]: the half-maximal inhibitory concentration (IC50) was below 100 nM. For `CCCC(O)(CC)Cn1nccc1-c1ccc([C@H]2CC[C@H](Oc3nn[nH]c3C(=O)O)CC2)cc1` (relative stereo) [Example 470, 4-(((trans)-4-(4-(1-(2-ethyl-2-hydroxypentyl)-1H-pyrazol-5-yl)phenyl)cyclohexyl)oxy)-1H-1,2,3-triazole-5-carboxylic acid], the IC50 is below 100 nM. The same measure, in the same setting: to `CCC(Cc1cc(-c2ccc([C@H]3CC[C@H](Oc4nn[nH]c4C(=O)O)CC3)cc2)[nH]n1)OC` (relative stereo) [Example 475, 4-(((trans)-4-(4-(3-(2-methoxybutyl)-1H-pyrazol-5-yl)phenyl)cyclohexyl)oxy)-1H-1,2,3-triazole-5-carboxylic acid] belongs below 100 nM. With `O=C(O)c1[nH]nnc1O[C@H]1CC[C@H](c2ccc(-c3ccnn3[C@H]3CCCC[C@@H]3O)cc2)CC1` (relative stereo) [Example 476, 4-(((trans)-4-(4-(1-((1S,2S)-2-hydroxycyclohexyl)-1H-pyrazol-5-yl)phenyl)cyclohexyl)oxy)-1H-1,2,3-triazole-5-carboxylic acid], the IC50 is below 100 nM.

In the case of `O=C(O)c1[nH]nnc1O[C@H]1CC[C@H](c2ccc(OC[C@H]3CCC[C@H](CO)C3)cc2)CC1` (relative stereo) [Example 483, 4-(((trans)-4-(4-(((trans)-3-(hydroxymethyl)cyclohexyl)methoxy)phenyl)cyclohexyl)oxy)-1H-1,2,3-triazole-5-carboxylic acid], the IC50 is below 100 nM.
